Reference: patent publication US12516341B2, “Use of flavonoid glycoside substance and glycosyltransferase gene for regulating resistance of plants to weeds” (ZHONGKENONGFU(BEIJING) BIOTECHNOLOGY CO., LTD, priority 2020, dated 2026)

What was measured:
[1] = tested on: lettuce; experiment: External application of compound to lettuce seeds on agar, root length; format: in vivo; settings: external application concentration 500 mg/L in 0.8% agar; 28° C. in the dark for 3 days; compared with control
Experimental: (§1) The reasons for choosing lettuce and barnyardgrass in the external application experiment were: lettuce was a common indicator crop reported in the literature for external application of allelopathic experiments, while barnyardgrass was the main weed in paddy fields.
(§2) (1) The compound of tricin-5-O-glucopyranoside was dried to a powder with a centrifugal concentrator and weighed, and an appropriate amount of sterile water was added to give a final concentration of 10 mg/mL.
(§3) (2) 500 mL of 0.8% agar was prepared and sterilized in an autoclave.
(§4) (3) The sterilized agar was placed in an ultra-clean bench and cooled to room temperature (note: the medium was not allowed to solidify), and then 4.75 mL of medium was accurately pipetted into a sterilized 10 mL centrifuge tube. 250 μL of the 10 mg/mL compound solution was added to give a final compound concentration of 500 mg/L. The medium containing the compound was quickly poured into a 10 cm×10 cm square dish, and the square dish was shaken quickly to make the medium evenly spread in the square dish. A medium in which 250 μL of sterile water was added to 4.75 mL of the medium was used as a control.
(§5) (4) Barnyardgrass and lettuce seeds were washed several times with distilled water, respectively, and then dried on sterile filter paper. […]
(§6) (7) Phenotypic statistics: the root length of each treated material was counted after 3 days. […]

[2] = tested on: barnyardgrass; experiment: External application of compound to barnyardgrass seeds on agar, root length; format: in vivo; settings: external application concentration 500 mg/L in 0.8% agar; 28° C. in the dark for 3 days; compared with control
Experimental: as §1, §2, §3, §4, §5, §6

[3] = tested on: Os07g0503900 recombinant protein; experiment: In vitro enzyme activity of Os07g0503900 (glycosylation of tricin with UDPG, UPLC-MS detection); format: biochemical, rice; settings: glycosyl donor UDPG; 30° C. for 1 h; pH 7.0; product tricin-5-O-glucopyranoside
Experimental: (1) The enzymatic reaction system was: Tris-HCl (pH 7.0, 50 mM, containing 10 mM DTT) 38 μL, 10 mM glycosyl acceptor (the glycosyl acceptor of Os07g0503900 was tricin) 1 μL, 100 mM glycosyl donor (UDPG) 1 μL, and 10 μL of the Os07g0503900 recombinant protein obtained in step 2 (Os07g0503900 protein concentration was 3.77 μg/μL). The reaction was carried out in a water bath at 30° C. for 1 h, and then quenched with an equal volume of methanol. A sample of the protein obtained from the E. coli transformed into the pMAL-c2X empty vector according to the above-mentioned step 2 was added as a control.
(2) Enzyme activity product detection: The sample in (1) was centrifuged at 4° C., 12,000 rpm for 10 min, and 30 μL was taken for detection by UPLC-MS (Agilent 1290UPLC-6540Q-TOF). Mobile phase A phase: 0.1% formic acid aqueous solution, % represented volume percentage; B phase: acetonitrile. Elution gradient: 0-2 min: 5% B-10% B, 2-12 min: 10% B-25% B, 12-18 min: 25% B-70% B, 18-23 min: 70% B-90% B, 23-25 min: 90% B-100% B, 25-30 min: 100% B, post-run for 5 min, % all represented volume percentage. The flow rate was 0.3 mL/min, the column temperature: 40° C., and the injection volume: 5 μL. Electrospray ionization (ESI) was used for detection in positive ion mode. The carrier gas was high-purity nitrogen at a pressure of 40 psi and a temperature of 325° C.

COc1cc(-c2cc(=O)c3c(O[C@@H]4O[C@H](CO)[C@@H](O)[C@H](O)[C@H]4O)cc(O)cc3o2)cc(OC)c1O [tricin-5-O-glucopyranoside]
inhibitory effect on the growth of lettuce (root length) [1]: very significant ability to inhibit the growth | inhibitory effect on the growth of barnyardgrass (root length) [2]: very significant ability to inhibit the growth

COc1cc(-c2cc(=O)c3c(O)cc(O)cc3o2)cc(OC)c1O [tricin]
inhibitory effect on the growth of lettuce (root length) [1]: not obvious | inhibitory effect on the growth of barnyardgrass (root length) [2]: not obvious | glycosylation of tricin by Os07g0503900 in vitro (new chromatographic peak vs empty vector control) [3]: Os07g0503900 can catalyze the glycosylation of tricin in vitro
